Measurements reported in patent US4710578A, “Isothiuronium salts” (Peremartoni Vegyipari Vallalat, priority 1984, dated 1987).
Where two headings read alike, the source gives them in different places.

How the values were obtained:
[1] = test system: neutrophilic granulocytes, lymphocytes and macrophages; assay: Preliminary rapid test: immunostimulant effect; format: in vivo, CFLP male mice; design: key: 0: if there is no difference in the number and activity of the said cells, no increase can be declared over the control; medium: Medium effect is observed if the increase of cell number or activity over the control amounts to 20%; The effect is strong if the increase of the cell number and activity of the immune system is more than 20% higher than the control; details: oral, one-tenth of LD50; 24 hours
[2] = test system: neutrophylic granulocytes and limphocytes; details: mouse, in vivo, po
ascites lymphoma cells = assay: Preliminary rapid test: antitumor effect; format: in vivo, CFLP male mice; details: oral, one-tenth of LD50; 24 hours
heart muscle = assay: Cardioprotective effect in isoprenaline necrosis; format: in vivo, male CFY rats; details: 1-5 mg/kg i.p. or 10-50 mg/kg p.o.; isoproterenol 5 mg/kg i.p.; two weeks
Description: 5 mg/kg of isoproterenol are i.p. administered to male CFY rats (weight 250-300 g). In each group 10 animals were used. One part of the animals served as control and the other were treated with a 1-5 mg/kg i.p. or 10-50 mg/kg p.o. dose of compound No. 14. After two weeks the hearts were subjected to hystological evaluation. The ratio of necrotized and intact area of heart muscle were determined.

ticks (Ixodes ricinus) = assay: Anti-parasital effect in dogs infected by ticks; format: in vivo; details: oral 1-2 mg/kg; six-eight hours after administration
Description: Compounds of the Formula I were added orally to dogs infected by ticks (Ixodes ricinus) for three days. Thus N-aminoiminomethyl-S-allyl-isothiuronium hydrochloride was administered in an oral dose of 1-2 mg/kg and the killing rate of ticks was registered.

NK-yl ascites tumor = assay: Combinations with known cytostatic agents in NK-ly ascites tumor; format: in vivo, CFLP mice; details: with cyclophosphamide, carnomustine, degranol, dibromo dulcitol or dibromo mannitol
NK-ly-ascites lymphoma = NK-ly-ascites lymphoma in vivo; design: species or system CFLP male mice; details: for Activity against NK-ly-ascites tumor: concentration below one-tenth of the LD50 value; for Survival rate and lifetime: dose-dependant
[3] = test system: human polymorphonuclear leucocytes; assay: Direct /random/ migration of human polymorphonuclear leucocytes on agarose microdrops; format: cell-based; details: for Effect on migration at a higher dose: 10 μg/ml; for Direct (random) migration of polymorphonuclear cells / Optimal dose for increase of migration: healthy donors
Description: Spontaneous (random) migration of leukocytes was measured on agarose microdrops according to the method of McCoy et al (1977) by carrying out some minor modifications (Kalmar and Gergely, 1982).
[…] agarose drops (0.2%) were placed on migration plates (Greiner, German Federal Republic). TC 199 liquid nutrient medium was added and the plates were air-tightly closed. After 24 hours the migration area were measured under a stereomicroscope. The migration area were expressed in mm^2.

tumor cells = assay: Testing of antitumor effect (overall)
[4] = in vivo, 24 h
human lymphocytes = assay: Immunological tests (overall; NK and K cell activity); format: cell-based
Description: Lymphocytes were separated on Ficoll-Uromiro (Boyum 1968) gradient from the venal blood of healthy donors and patients suffering from malignant lymphoma and metastatizing solid tumours, respectively. When selecting the patients belonging to the latter group, the decreased ADCC and NK activity was taken into consideration. The phagocytes were removed by treatment with iron powder and a magnet.
ADCC was determined according to the method of Perlmann and Perlmann (1970) with minor modifications (Lang et al, 1981). Chicken erythrocytes labelled with 10^5 51 Cr and coated with anti-chicken erythrocyte rabbit-serum were incubated with the lymphocytes for 4 hours at 37° C. The reaction having been stopped the activity of the supernatant of the centrifuged cells was determined in a gamma-counter. The rate of chrome-release was expressed as the cytotoxicity index (CI %). This value was calculated as described in one of our earlier publications (Lang et al., 1980)--(see Table I).
NK activity was determined by the method of Jondal and Pross (1975) by using minor modifications (Lang et al, 1981). K-562 tumor cells labelled by ^51 Cr were incubated with effector cells in a TC 199 liquid nutrient medium comprising 10% of decomplemented calf serum. The reaction having been stopped the radioactivity of the superntant of the centrifuged cells (chrome release) was counted in a gamma-counter. The killing of the tumor cells (cytotoxicity index %) was expressed as the difference of the test release and spontaneous release.
Statistical calculations were carried out by means of a mono-sample test. […] The said effect may be so strong that cytotoxic activity decreased to one-tenth of the original value may be restored to the oroginal level (Table II).

[5] = test system: human bone metastasis of mammal tumors, ovary tumors and pancreas tumors; assay: Human tumors, oral treatment for 6-12 months; format: in vivo; details: oral daily dose 30-120 mg (0.5-2 mg/kg)
[6] = test system: hemodinamical parameters and respiration function of cats
[7] = test system: P-388 mouse lymphoma cells; assay: In vitro antitumor effect, P-388; format: cell-based; details: 400 μg/ml

Molecule | LD50 at 24 h (in vivo; po) | Immunostimulant effect [1] | Toxic effect [2] | Antitumor effect of combination vs cytostatic agent alone (NK-yl ascites tumor) | Immunodepression of combination vs cytostatic agent alone (NK-yl ascites tumor) | Activity against NK-ly-ascites tumor (NK-ly-ascites lymphoma) | Survival rate and lifetime (NK-ly-ascites lymphoma) | Effect on migration at a higher dose [3] | Direct (random) migration of polymorphonuclear cells [3] | Optimal dose for increase of migration [3] | Antitumor effect (tumor cells) | LD50 at 24 h (in vivo; ip) | Immunostimulant effect (human lymphocytes) | Increase of normal and strongly decreased NK and K cell activity (human lymphocytes) | other results
N=C(N)NC(=N)SCc1ccccc1 [Example 18, N-Aminoiminomethyl-S-Benzyl-Thiuronium Chloride] | 2420 ± 260 mg/kg | 0 | 0 |  |  |  |  |  |  |  |  |  |  |  | Antitumor effect (ascites lymphoma cells): increase
C=CCSC(=N)NC(=N)N [Example 12, N-Aminoiminomethyl-S-Allyl-Isothiuronium Chloride] |  |  |  |  |  |  |  |  |  |  |  |  |  |  | Necrosis of heart muscle (heart muscle): significant decrease of necrosis; Killing rate of ticks (ticks (Ixodes ricinus)): all ticks were killed
N-Aminoiminomethyl-S-(1-Chloro-2-Hydroxy-Propyl)-Isothiuronium Bromide [Example 14] |  | weak |  | the antitumor effect was strengthened | immunodepression decreased | active agains Nk-ly-ascites tumor in a concentration below one-tenth of the LD50 value | increase survival rate and lifetime in a dose-dependant manner | less expressed | increased | 1.0 µg/mL | outstanding antitumor effect |  |  |  | LD50 [4]: 2380 mg/kg; LD50 ([4]; po): 1240 ± 160 mg/kg
N=C(N)NC(=N)SCCO [Example 16, N-Aminoiminomethyl-S-(2-Hydroxyethyl)-Isothiuronium Chloride] | 3280 ± 460 mg/kg | strong (The effect is strong if the increase of the cell number and activity of the immune system is more than 20% higher than the control) | 0 | the antitumor effect was strengthened | immunodepression decreased |  |  |  |  |  |  | 1680 ± 210 mg/kg | outstanding immunostimulant effect | significant increase of normal and strongly decreased NK and K cell activity, even above the normal level | 
C=CCSC(=N)NC(=N)N [Example 11, N-Aminoiminomethyl-S-Allyl-Isothiuronium Bromide] | 2380 ± 320 mg/kg | strong (The effect is strong if the increase of the cell number and activity of the immune system is more than 20% higher than the control) | 0 | the antitumor effect was strengthened | immunodepression decreased | active agains Nk-ly-ascites tumor in a concentration below one-tenth of the LD50 value | increase survival rate and lifetime in a dose-dependant manner | less expressed | increased | 1.0 µg/mL | outstanding antitumor effect | 320 ± 30 mg/kg | outstanding immunostimulant effect | significant increase of normal and strongly decreased NK and K cell activity, even above the normal level | Cytotoxical dose range (NK-ly-ascites lymphoma; mouse, in vivo): 250 to 500 mg/kg; Clinical outcome in human tumors [5]: significant improvement or reconvalescence; Hemodinamical parameters and respiration function ([6]; 10 mg/kg i.v., opened and closed chest): does not considerably effect the hemodinamical parameters and respiration function; Left ventricular pressure and frequency effects ([6]; 50 mg/kg i.v.): significant and long-lasting; Hemodynamical changes ([6]; 100 mg/kg i.v.): strong hemodynamical changes were observed; Left ventricular pressure and frequency ([6]; above 10 mg/kg i.v.): decreased; Lethality ([6]; in vivo): the cats did not perish; Activity on P-388 cells on increasing the concentration [7]: the activity does not become stronger
